Like-named read-outs stand apart in the source and are kept apart here. Non-standard residues stand in square brackets, D forms with d. No end group written: not given here. hArg = N=C(N)NCCCC[C@H](N)C(=O)O

One data set deals with NMUR1 or NMUR2 receptors. The data set can be described thus: Receptor specificity: binding and activation of NMUR1 or NMUR2. The class given is biochemical. Conditions: bind and activate.
The test system of a further data set is PYY levels in plasma. The data set can be described thus: Plasma PYY levels in diet-induced obese mice after subcutaneous dosing. The format is in vivo. On the procedure: (§1) Animal dosing was as follows. Ad libitum fed male diet-induced obese mice were weighed and dosed subcutaneously about 30 minutes prior to the onset of the dark phase of the light cycle. Animals were either not given food or allowed food during treatment. For NMU studies, plasma was collected by cardiac sticks at two or four hours post dose. For studies with the PEGylated NMU analog, plasma was collected at multiple time points up to 18-hours post dose.
(§2) GLP-1 levels in plasma were measured using the Total GLP-1 kit from Meso Scale Discovery, Gaithersburg, Md. Glucagon levels were measured using the Metabolic Multiplex kit from Meso Scale Discovery, Gaithersburg, Md. PYY levels were measured using the PYY Luminex assay from Millipore, Billerica, Mass. The data shown reports of glucagon, PYY and GLP-1 levels as pg/mL (all values are reported as mean±SEM and data was analyzed using a two-tailed unpaired Student's t test; p values ≦0.05 were reported as significant and are denoted with an asterisk).
(§3) Diet-induced obese mice (DIO) were purchased from Taconic Farms. NMUR1 knockout (Nmur1−/−) mice were generated using standard homologous recombination techniques. U.S. Published Application No. 20080172752 discloses NMUR1 knockout mice. NMUR2 knockout (Nmur2−/−) mice were licensed from Deltagen Inc., San Mateo, Calif. and subsequently transferred to Taconic Farms. Mice were individually housed in Tecniplast cages in a conventional SPF facility. Mice were initially maintained on a regular chow diet and then early in their life were switched to a high fat diet (D12492: 60% kcal from fat; Research Diets, Inc., New Brunswick, N.J.) with ad libitum access to water in a 12-hour light/12-hour dark cycle.

A further data set relates to mice. As to conditions: cited from earlier work.
Data set [1] has as its system total GLP-1 levels in plasma. The experiment in a line: Plasma total GLP-1 levels in diet-induced obese mice after subcutaneous dosing. The format is in vivo. Conditions: for total GLP-1 levels: 10 mpk. How it is done:
as §1, §2, §3

The next data set has as its system GLP-1 levels in plasma. The experiment in a line: Plasma GLP-1 levels in wild-type, Nmur1-deficient and Nmur2-deficient mice. The class given is in vivo. As to conditions: four-hours post dose, absence of food (FIG. 3). On the procedure:
as §2, §3
Plasma was collected from wild-type, Nmur1-deficient and Nmur2-deficient mice four-hours post dose in the absence of food.

The subject of the next data set is Nmur1 knockout mice. The experiment in a line: Food intake and weight gain in Nmur1 knockout mice after peripheral administration. The format is in vivo. As to conditions: administered peripherally.
Data set [2] relates to glucagon levels in plasma. The experiment in a line: Oral glucose tolerance test, plasma glucagon. The class given is in vivo, mice. Conditions: 15 minutes after oral glucose tolerance test (FIG. 6B). How it is done: (§4) The Oral Glucose Tolerance Test (OGTT) was performed as follows: Ad libitum fed male diet-induced obese mice were weighed and dosed subcutaneously about 30 minutes prior to the onset of the dark phase of the light cycle. Animals were not given food after dosing. The next day, approximately 18-hours after dosing, basal glucose levels were measured from animals by tail blood. Animals were then administered a glucose dose (1.5 g/kg) by oral gavage and fifteen minutes after dosing with glucose, plasma was collected to evaluate glucagon and glucose levels.
as §2
Diet-induced obese mice (DIO) were purchased from Taconic Farms. NMUR1 knockout (Nmur1−/−) mice were generated using standard homologous recombination techniques. U.S. Published Application No. 20080172752 discloses NMUR1 knockout mice. […]

For the next data set, the system named is plasma glucose levels. The experiment in a line: Oral glucose tolerance test, plasma glucose. The format is in vivo, mice. Conditions: 15 minutes after oral glucose tolerance test (FIG. 6A). How it is done:
as §4, §3

Take “FRVDEEFQSPFASQSRGFWLFRP-(Harg)-N-CONH2 (FRVDEEFQSPFASQSRGFWLFRP[hArg]N-NH2; N-terminus assumed; SMILES CC(C)C[C@H](NC(=O)[C@H](Cc1c[nH]c2ccccc12)NC(=O)[C@H](Cc1ccccc1)NC(=O)CNC(=O)[C@H](CCCNC(=N)N)NC(=O)[C@H](CO)NC(=O)[C@H](CCC(N)=O)NC(=O)[C@H](CO)NC(=O)[C@H](C)NC(=O)[C@H](Cc1ccccc1)NC(=O)[C@@H]1CCCN1C(=O)[C@H](CO)NC(=O)[C@H](CCC(N)=O)NC(=O)[C@H](Cc1ccccc1)NC(=O)[C@H](CCC(=O)O)NC(=O)[C@H](CCC(=O)O)NC(=O)[C@H](CC(=O)O)NC(=O)[C@@H](NC(=O)[C@H](CCCNC(=N)N)NC(=O)[C@@H](N)Cc1ccccc1)C(C)C)C(=O)N[C@@H](Cc1ccccc1)C(=O)N[C@@H](CCCNC(=N)N)C(=O)N1CCC[C@H]1C(=O)N[C@@H](CCCCNC(=N)N)C(=O)N[C@@H](CC(N)=O)C(N)=O)”: the “receptor specificity (NMUR1 / NMUR2)” value in the data set on NMUR1 or NMUR2 receptors is “bispecific”.

In the case of FALFRPRN-CONH2 (FALFRPRN-NH2), the “receptor specificity (NMUR1 / NMUR2)” value in the data set with NMUR1 or NMUR2 receptors is reported as “bispecific”.

For the substance “FRVDEEFQSPFASQSRGFWLFRA-(Harg)-N-CONH2 (FRVDEEFQSPFASQSRGFWLFRA[hArg]N-NH2; N-terminus assumed; SMILES CC(C)C[C@H](NC(=O)[C@H](Cc1c[nH]c2ccccc12)NC(=O)[C@H](Cc1ccccc1)NC(=O)CNC(=O)[C@H](CCCNC(=N)N)NC(=O)[C@H](CO)NC(=O)[C@H](CCC(N)=O)NC(=O)[C@H](CO)NC(=O)[C@H](C)NC(=O)[C@H](Cc1ccccc1)NC(=O)[C@@H]1CCCN1C(=O)[C@H](CO)NC(=O)[C@H](CCC(N)=O)NC(=O)[C@H](Cc1ccccc1)NC(=O)[C@H](CCC(=O)O)NC(=O)[C@H](CCC(=O)O)NC(=O)[C@H](CC(=O)O)NC(=O)[C@@H](NC(=O)[C@H](CCCNC(=N)N)NC(=O)[C@@H](N)Cc1ccccc1)C(C)C)C(=O)N[C@@H](Cc1ccccc1)C(=O)N[C@@H](CCCNC(=N)N)C(=O)N[C@@H](C)C(=O)N[C@@H](CCCCNC(=N)N)C(=O)N[C@@H](CC(N)=O)C(N)=O)”, the “receptor specificity (NMUR1 / NMUR2)” value in the data set with NMUR1 or NMUR2 receptors was “bispecific”.

Regarding “FRVDEEFQSPFASQSRGYFLFRPRN-CONH2 (FRVDEEFQSPFASQSRGYFLFRPRN-NH2) [NMU]”, the “increase of PYY levels” value in the data set on PYY levels in plasma (10 mpk, four-hours post dose, obese mice (FIG. 1A)) is “about two-fold”. The PYY levels result with PYY levels in plasma (10 mpk, four-hours post dose, obese mice (FIG. 1B)) is listed as “increased”; with PYY levels in plasma (10 mpk, two-hours post dose, obese mice (FIG. 1B)), “increased”. Also, the food intake result with mice (acute administration, centrally or peripherally, mice) is “reduce”. In addition, the core body temperature entry in the data set with mice (acute peripheral administration, mice) was “dose-dependently increases”. Also, the anorectic actions result with mice (centrally administered, NMUR1-deficient (Nmur1-/-) mice) is listed as “present”; in the data set with mice (centrally administered, NMUR2-deficient (Nmur2-/-) mice), “absent”; in the data set with mice (peripherally administered, Nmur1-/- mice), “absent”; in the data set with mice (peripherally administered, Nmur2-/- mice), “present”. Moreover, the “food intake, body weight and adiposity” value with mice (chronic administration, centrally or peripherally, mice) is “reduces”. The “total GLP-1 levels” value in data set [1] (four-hours post dose, obese mice (FIG. 2A)) was “increased”. Also, in data set [1] (chronic treatment 3 mpk/day subcutaneously for two weeks (FIG. 2B)), the “total GLP-1” value is “significant increase”. For the same substance, the figures for the GLP-1 levels result in the data set on GLP-1 levels in plasma (Nmur1-deficient mice), in the data set on GLP-1 levels in plasma (Nmur2-deficient mice) and with GLP-1 levels in plasma (wild-type mice) were “not”, “Increased” and “Increased”, respectively.

On to “Ac-C2FRVDEEFQSPFASQSRGYFLFRPRN-CONH2 (Ac-C((PEG)2 40 kDa)FRVDEEFQSPFASQSRGYFLFRPRN-NH2; also: PEG size not given here) [NMU12, PEGylated NMU analog; differs from NMU9 by the source of the PEG]”, for which the food intake result in the data set on Nmur1 knockout mice (Nmur1 knockout mice) is reported as “reduce food intake”. Besides, the weight gain result with Nmur1 knockout mice (Nmur1 knockout mice) is given as “reduce weight gain”. Moreover, the “crossing the blood-brain barrier” value in the data set with Nmur1 knockout mice (inferred from effect in Nmur1 knockout mice) is listed as “able to cross the blood-brain barrier”. The PYY levels entry with PYY levels in plasma (10 mpk, 18-hr post dose, absence of food (FIG. 4B)) was “did not increase”. For the same substance, the “PYY levels in plasma” value in the data set on PYY levels in plasma (18-hours post dose, presence of food, obese mice (FIG. 4A)) is listed as “dose-dependently increased”. The glucagon levels result in data set [2] (0.1 mpk) and in data set [2] (1 mpk) was “reduced” in each case. The “total GLP-1 levels” value in data set [1] (18-hours post dose, absence of food (FIG. 5B)) was “increased”; in data set [1] (18-hours post dose, presence of food (FIG. 5A)) it was “increased”. The plasma glucose levels result in the data set with plasma glucose levels (0.1 mpk) and with plasma glucose levels (1 mpk) was “reduced” throughout.

On to “rat NMU-23: full length NMU, a 23-mer (NMU-23) in rats and mice (YKVNEYQGPVAPSGGFFLFRPRN; ends and bridges not checked; UniProt P12760 144-166, looked up) [reference compound]”, for which the “body weight, body composition, body temperature and food intake” value with mice (chronic central administration, Nmur2-/- transgenic mice) was “largely unaffected”. In addition, the “body weight, body composition and food intake” value in the data set with mice (chronic peripheral administration, Nmur1-/- transgenic mice) is “largely unaffected”.

Source of the values: patent publication US20110294735A1, “MECHANISM OF NEUROMEDIN U ACTION AND USES THEREOF” (MERCK SHARP & DOHME CORP., priority 2008, published 2011).
